# Data published in ChEMBL document CHEMBL1201862, “PubChem BioAssay data set” (2004).
# Active and inactive are the calls of the source.
# Key:
# [1] = ATP-based viability loss in HEK293T cells – cell-based, CellTiter-Glo luminescence, cherry-picked samples, set 4, cytotoxicity control, dose response (AID 743441); type: functional; conditions: HEK293
# [2] = target: T1, Scavenger receptor class B member 1 (Mus musculus, UniProt Q61009); experiment: mouse SR-BI DiI-HDL transfer blockers – ldlA[mSR-BI] CHO cells, fluorescence plate reader, dry powder, set 9, dose response (AID 623880); type: functional, cell-based
# [3] = target: T1, Scavenger receptor class B member 1; experiment: blockers of DiI-HDL lipid transfer via SR-BI – cell-based, ldlA[mSR-BI] CHO, DiI fluorescence, dry powder, set 10, dose response (AID 624029); type: functional
# [4] = Counterscreen for activators of the function of SWI/SNF related, matrix associated, actin dependent regulator of chromatin, subfamily a, member 2 (SMARCA2, BRM): Luminescence-based cell-based high throughput dose response assay to identify non-selective compounds using the VP16 reporter assay.; type: functional
# [5] = target: T2, X-box-binding protein 1 (Homo sapiens, UniProt P17861); type: functional, Cricetulus griseus;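 further: confirmatory dose-response counter-screen serving a CHOP assay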
# T2 sequence (P17861 whole entry): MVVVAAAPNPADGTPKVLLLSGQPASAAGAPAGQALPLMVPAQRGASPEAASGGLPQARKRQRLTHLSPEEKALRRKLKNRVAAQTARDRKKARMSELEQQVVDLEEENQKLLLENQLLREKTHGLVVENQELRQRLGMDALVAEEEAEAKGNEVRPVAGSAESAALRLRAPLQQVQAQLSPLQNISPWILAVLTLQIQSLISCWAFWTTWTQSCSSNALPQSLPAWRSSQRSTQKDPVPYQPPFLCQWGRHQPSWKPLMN
# [6] = target: T3, Polyadenylate-binding protein 1 (Homo sapiens, UniProt P11940); experiment: MLLE binding blockers, Cy5 peptide tracer – biochemical, fluorescence polarization, Cy5-PAM2 peptide, secondary, miRNA deadenylation inhibitor project, dose response (AID 602260); type: functional; conditions: read-out: IC50_Mean
# [7] = target: SWI/SNF-related matrix-associated actin-dependent regulator of chromatin subfamily A member 2 (Homo sapiens, UniProt P51531); experiment: Luminescence-based cell-based high throughput dose response assay to identify activators of the function of SWI/SNF related, matrix associated, actin dependent regulator of chromatin, subfamily a, member 2 (SMARCA2, BRM).; type: functional
# [8] = target: T3, Polyadenylate-binding protein 1; experiment: MLLE domain peptide-binding blockers, IC50 – biochemical, fluorescence polarization, FITC-PAM2 peptide, dose response (AID 602259); type: functional; conditions: read-out: IC50_Mean
# T1 sequence (Q61009 whole entry): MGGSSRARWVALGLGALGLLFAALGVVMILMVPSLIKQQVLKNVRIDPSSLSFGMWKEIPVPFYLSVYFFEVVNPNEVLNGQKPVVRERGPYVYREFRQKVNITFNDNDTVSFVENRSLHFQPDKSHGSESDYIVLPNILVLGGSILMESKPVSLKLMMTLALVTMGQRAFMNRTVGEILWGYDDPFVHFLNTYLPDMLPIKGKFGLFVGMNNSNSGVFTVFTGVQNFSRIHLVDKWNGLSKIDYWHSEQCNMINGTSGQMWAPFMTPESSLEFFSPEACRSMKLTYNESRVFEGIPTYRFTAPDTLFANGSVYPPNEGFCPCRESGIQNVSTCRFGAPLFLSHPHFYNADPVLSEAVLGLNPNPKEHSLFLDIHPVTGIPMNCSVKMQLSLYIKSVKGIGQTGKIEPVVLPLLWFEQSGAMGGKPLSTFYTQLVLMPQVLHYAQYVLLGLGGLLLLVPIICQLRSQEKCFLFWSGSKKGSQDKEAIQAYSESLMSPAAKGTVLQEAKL
# T3 sequence (P11940 whole entry): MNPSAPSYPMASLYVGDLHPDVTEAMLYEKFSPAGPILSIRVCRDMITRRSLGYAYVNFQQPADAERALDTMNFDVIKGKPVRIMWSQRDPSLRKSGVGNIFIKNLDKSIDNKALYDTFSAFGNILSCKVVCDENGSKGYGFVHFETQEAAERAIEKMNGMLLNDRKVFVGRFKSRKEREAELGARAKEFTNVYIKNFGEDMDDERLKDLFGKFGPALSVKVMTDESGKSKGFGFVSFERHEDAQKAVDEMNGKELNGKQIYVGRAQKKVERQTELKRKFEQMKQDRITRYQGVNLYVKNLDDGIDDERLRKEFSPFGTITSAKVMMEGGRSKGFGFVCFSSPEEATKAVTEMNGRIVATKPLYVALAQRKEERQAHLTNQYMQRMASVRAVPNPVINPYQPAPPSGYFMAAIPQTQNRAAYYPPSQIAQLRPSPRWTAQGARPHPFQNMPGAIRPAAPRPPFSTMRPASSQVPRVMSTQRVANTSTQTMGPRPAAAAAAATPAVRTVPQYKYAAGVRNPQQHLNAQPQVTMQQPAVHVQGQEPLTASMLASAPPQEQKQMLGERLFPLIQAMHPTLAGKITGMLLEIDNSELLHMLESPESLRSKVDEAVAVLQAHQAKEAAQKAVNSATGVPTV
# Sequence of SWI/SNF-related matrix-associated actin-dependent regulator of chromatin subfamily A member 2 (P51531 whole entry, the tested form may be a part): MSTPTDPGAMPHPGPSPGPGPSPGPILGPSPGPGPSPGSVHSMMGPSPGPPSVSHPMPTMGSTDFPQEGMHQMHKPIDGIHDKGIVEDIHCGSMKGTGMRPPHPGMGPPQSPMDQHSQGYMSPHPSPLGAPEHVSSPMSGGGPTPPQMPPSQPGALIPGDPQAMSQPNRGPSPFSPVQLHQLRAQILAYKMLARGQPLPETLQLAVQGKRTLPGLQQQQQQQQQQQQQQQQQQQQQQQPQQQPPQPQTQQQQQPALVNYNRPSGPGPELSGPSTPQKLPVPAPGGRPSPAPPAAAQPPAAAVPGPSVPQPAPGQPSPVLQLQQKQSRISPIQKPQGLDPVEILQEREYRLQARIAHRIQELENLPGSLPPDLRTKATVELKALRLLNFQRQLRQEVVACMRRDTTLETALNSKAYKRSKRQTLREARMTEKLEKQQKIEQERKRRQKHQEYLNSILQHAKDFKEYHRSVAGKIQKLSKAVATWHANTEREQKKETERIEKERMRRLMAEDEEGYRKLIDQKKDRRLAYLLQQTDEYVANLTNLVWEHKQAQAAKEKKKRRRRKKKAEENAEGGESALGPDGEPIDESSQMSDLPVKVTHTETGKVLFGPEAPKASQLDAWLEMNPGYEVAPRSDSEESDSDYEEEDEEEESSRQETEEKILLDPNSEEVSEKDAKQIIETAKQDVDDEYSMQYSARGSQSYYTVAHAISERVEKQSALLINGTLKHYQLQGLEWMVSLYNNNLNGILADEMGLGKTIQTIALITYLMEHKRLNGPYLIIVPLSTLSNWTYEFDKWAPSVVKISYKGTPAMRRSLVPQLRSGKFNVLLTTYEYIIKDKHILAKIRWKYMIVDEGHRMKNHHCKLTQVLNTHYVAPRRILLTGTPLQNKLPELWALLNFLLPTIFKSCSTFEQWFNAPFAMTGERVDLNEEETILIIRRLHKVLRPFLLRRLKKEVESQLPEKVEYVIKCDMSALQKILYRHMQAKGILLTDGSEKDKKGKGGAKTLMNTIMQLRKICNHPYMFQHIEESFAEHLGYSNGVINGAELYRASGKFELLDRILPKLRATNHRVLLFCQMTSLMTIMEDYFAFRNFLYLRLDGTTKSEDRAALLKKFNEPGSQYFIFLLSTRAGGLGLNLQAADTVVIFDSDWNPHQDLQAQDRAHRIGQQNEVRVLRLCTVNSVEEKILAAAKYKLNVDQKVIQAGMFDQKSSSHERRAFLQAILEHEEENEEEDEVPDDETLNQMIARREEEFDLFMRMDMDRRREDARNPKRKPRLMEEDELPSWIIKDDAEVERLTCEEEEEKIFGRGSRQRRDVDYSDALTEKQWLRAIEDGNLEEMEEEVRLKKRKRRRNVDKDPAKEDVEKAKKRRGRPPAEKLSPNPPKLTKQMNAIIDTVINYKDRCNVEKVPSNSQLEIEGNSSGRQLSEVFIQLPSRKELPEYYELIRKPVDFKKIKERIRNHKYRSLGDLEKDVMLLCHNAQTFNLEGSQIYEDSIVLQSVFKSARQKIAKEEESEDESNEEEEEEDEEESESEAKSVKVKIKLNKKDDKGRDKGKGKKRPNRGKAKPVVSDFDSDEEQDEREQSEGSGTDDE
structure (smiles),measurement,setting,value
CCOc1ccccc1NC(=O)c1ccc2ccccc2c1,AC50,[1],> 52 µM (inactive)
O=C(O)CC(C(=O)Nc1cccc(C(F)(F)F)c1)C1CCCO1 (stereo not drawn),AC50,[2],45.4 µM (active)
same,AC50,[3],34.3 µM (active)
COc1ccc2c3c(cccc13)C(=O)N(O)C2=O,EC50,[4],> 91.2 µM (inactive)
same,Absolute IC50 (XBP1),[5],10 µM
same,IC50,[6],> 66 µM (inactive)
same,EC50,[7],26.4 µM (inactive)
same,IC50,[8],35.2 µM (inactive)
